Where two headings read alike, the source gives them in different places.
Experiments:
Assay type in all cases: cell-based
[1] = molecular target: T1, PLK1 (Homo sapiens, UniProt P53350); assay: Luciferase assay for PLK1 in HeLa LgBit (Plk1-HiBit KI) cell line; details: 300 nM compound, luminescence after 9 hours
T1 construct: endogenous in cells; host or cells: HeLa LgBit (Plk1-HiBit KI): HeLa stably expressing LgBit, with a CRISPR/Cas9 knock-in of HiBit at the endogenous PLK1 locus
Procedure, shortened: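 HeLa cells stably expressing LgBit, with HiBit knocked in at the C-terminus of endogenous Plk1, released from a 24 h 2 mM thymidine block and grown 18 h. Endurazine added, then compound at 300 nM; luminescence tracked in real time, expressed as ratio to DMSO.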

[2] = test system: NCI-H526 cell line; assay: Cell viability assay for H526 cell (EZ-Cytox); details: Homo sapiens, NCI-H526, 120 h; H526 cells, 5 days, 3000 nM to 0.46 nM
Procedure, shortened: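 NCI-H526 cells were exposed to compound in CO2 incubator culture for 5 days. Viability was read by EZ-Cytox absorbance at 450 nm after 3 min shaking, giving IC50 values.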

[3] = test system: MRC-5 cell line; assay: Cell viability assay for MRC-5 cell line (EZ-Cytox); details: Homo sapiens, MRC5, 120 h, read-out: Activity: IC50 value of Exemplary Compound to MRC-5 cell line
Procedure: 4. Cell Viability Assay for MRC-5 Cell Line
(1) Culture of MRC-5 Cell Line
Passage of cultured cells was maintained within P15.
(2) Treatment of Compounds of the Present Invention
Then, it was cultured in 37° C.
(3) Cytotoxicity Experiment
CO2 incubator for 4 hours.

[4] = MRC-5 normal cell line, 5 days, 10000 nM to 1.52 nM, N.D. = no cytotoxicity until 10 μM

T1 sequence (P53350 whole entry): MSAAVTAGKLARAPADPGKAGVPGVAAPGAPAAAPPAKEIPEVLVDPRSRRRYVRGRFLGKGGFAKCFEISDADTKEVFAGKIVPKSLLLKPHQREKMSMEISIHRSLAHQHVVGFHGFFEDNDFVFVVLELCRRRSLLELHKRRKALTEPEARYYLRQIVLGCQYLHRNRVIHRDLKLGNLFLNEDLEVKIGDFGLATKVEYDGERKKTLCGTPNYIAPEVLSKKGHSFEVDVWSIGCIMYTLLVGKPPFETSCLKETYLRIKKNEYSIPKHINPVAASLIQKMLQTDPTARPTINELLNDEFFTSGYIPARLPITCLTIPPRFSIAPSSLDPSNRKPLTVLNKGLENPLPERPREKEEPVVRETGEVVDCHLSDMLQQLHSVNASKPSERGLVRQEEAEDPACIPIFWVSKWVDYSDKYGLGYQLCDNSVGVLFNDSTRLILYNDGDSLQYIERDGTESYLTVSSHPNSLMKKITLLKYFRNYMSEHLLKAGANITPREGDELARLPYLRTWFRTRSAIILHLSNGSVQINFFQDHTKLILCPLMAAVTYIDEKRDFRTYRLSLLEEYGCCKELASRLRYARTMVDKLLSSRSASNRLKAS

SMILES: COc1cc(C(=O)NC2CN(CC3CCN(c4ccc5c(c4)C(=O)N(C4CCC(=O)NC4=O)C5=O)CC3)C2)ccc1Nc1ncc2c(n1)N(C1CCCC1)CC(F)(F)C(=O)N2C (stereo not drawn) [Compound 139, 4-((9-cyclopentyl-7,7-difluoro-5-methyl-6-oxo-6,7,8,9-tetrahydro-5H-pyrimido[4,5-b][1,4]diazepin-2-yl)amino)-N-(1-((1-(2-(2,6-dioxopiperidin-3-yl)-1,3-dioxoisoindolin-5-yl)piperidin-4-yl)methyl)azetidin-3-yl)-3-methoxybenzamide]
- Activity: ratio of the luminescense value of each Exemplary Compound treatment group to DMSO treatment group [1]: ++ (++<0.6)
- IC50 [2]: < 0.05 µM
- IC50 [3, 4]: > 10 µM

SMILES: COc1cc(C(=O)NC2CCN(C(=O)CCN3CCN(c4ccc(F)c5c4C(=O)N(C4CCC(=O)NC4=O)C5=O)CC3)CC2)ccc1Nc1ncc2c(n1)N(C1CCCC1)CC(F)(F)C(=O)N2C (stereo not drawn) [Compound 142, 4-((9-cyclopentyl-7,7-difluoro-5-methyl-6-oxo-6,7,8,9-tetrahydro-5H-pyrimido[4,5-b][1,4]diazepin-2-yl)amino)-N-(1-(3-(4-(2-(2,6-dioxopiperidin-3-yl)-7-fluoro-1,3-dioxoisoindolin-4-yl)piperazin-1-yl)propanoyl)piperidin-4-yl)-3-methoxybenzamide]
- Activity: ratio of the luminescense value of each Exemplary Compound treatment group to DMSO treatment group [1]: ++ (++<0.6)
- IC50 [2]: < 0.1 µM
- IC50 [3, 4]: > 10 µM

SMILES: COc1cc(C(=O)NC2CCCN(CCN3CCN(c4cccc5c4C(=O)N(C4CCC(=O)NC4=O)C5=O)CC3)C2)ccc1Nc1ncc2c(n1)N(C1CCCC1)CC(F)(F)C(=O)N2C (stereo not drawn) [Compound 143, 4-((9-cyclopentyl-7,7-difluoro-5-methyl-6-oxo-6,7,8,9-tetrahydro-5H-pyrimido[4,5-b][1,4]diazepin-2-yl)amino)-N-(1-(2-(4-(2-(2,6-dioxopiperidin-3-yl)-1,3-dioxoisoindolin-4-yl)piperazin-1-yl)ethyl)piperidin-3-yl)-3-methoxybenzamide]
- Activity: ratio of the luminescense value of each Exemplary Compound treatment group to DMSO treatment group [1]: ++ (++<0.6)
- IC50 [2]: < 0.1 µM
- IC50 [3]: > 10 µM

SMILES: COc1cc(C(=O)NC2CCCN(CCCN3CCN(c4cccc5c4C(=O)N(C4CCC(=O)NC4=O)C5=O)CC3)C2)ccc1Nc1ncc2c(n1)N(C1CCCC1)CC(F)(F)C(=O)N2C (stereo not drawn) [Compound 144, 4-((9-cyclopentyl-7,7-difluoro-5-methyl-6-oxo-6,7,8,9-tetrahydro-5H-pyrimido[4,5-b][1,4]diazepin-2-yl)amino)-N-(1-(3-(4-(2-(2,6-dioxopiperidin-3-yl)-1,3-dioxoisoindolin-4-yl)piperazin-1-yl)propyl)piperidin-3-yl)-3-methoxybenzamide]
- Activity: ratio of the luminescense value of each Exemplary Compound treatment group to DMSO treatment group [1]: ++ (++<0.6)
- IC50 [2]: < 0.05 µM
- IC50 [3]: 4.08 µM

SMILES: COc1cc(C(=O)NN2CCC(CN3CCN(c4ccc5c(c4)C(=O)N(C4CCC(=O)NC4=O)C5=O)CC3)CC2)ccc1Nc1ncc2c(n1)N(C1CCCC1)CC(F)(F)C(=O)N2C (stereo not drawn) [Compound 148, 4-((9-cyclopentyl-7,7-difluoro-5-methyl-6-oxo-6,7,8,9-tetrahydro-5H-pyrimido[4,5-b][1,4]diazepin-2-yl)amino)-N-(4-((4-(2-(2,6-dioxopiperidin-3-yl)-1,3-dioxoisoindolin-5-yl)piperazin-1-yl)methyl)piperidin-1-yl)-3-methoxybenzamide]
- Activity: ratio of the luminescense value of each Exemplary Compound treatment group to DMSO treatment group [1]: ++ (++<0.6)
- IC50 [2]: < 0.05 µM
- IC50 [3, 4]: 13.2 µM

SMILES: COc1cc(C(=O)NN2CCC(CCN3CCN(c4ccc5c(c4)C(=O)N(C4CCC(=O)NC4=O)C5=O)CC3)C2)ccc1Nc1ncc2c(n1)N(C1CCCC1)CC(F)(F)C(=O)N2C (stereo not drawn) [Compound 149, 4-((9-cyclopentyl-7,7-difluoro-5-methyl-6-oxo-6,7,8,9-tetrahydro-5H-pyrimido[4,5-b][1,4]diazepin-2-yl)amino)-N-(3-(2-(4-(2-(2,6-dioxopiperidin-3-yl)-1,3-dioxoisoindolin-5-yl)piperazin-1-yl)ethyl)pyrrolidin-1-yl)-3-methoxybenzamide]
- Activity: ratio of the luminescense value of each Exemplary Compound treatment group to DMSO treatment group [1]: ++ (++<0.6)
- IC50 [2]: < 0.05 µM
- IC50 [3, 4]: > 10 µM

SMILES: COc1cc(C(=O)N[C@H]2CC[C@H](N3CCN(c4ccc5c(c4)C(=O)N(C4CCC(=O)NC4=O)C5=O)CC3)CC2)ccc1Nc1ncc2c(n1)N(C(C)C)CC(F)(F)C(=O)N2C (stereo partly drawn) [Compound 150, 4-((7,7-difluoro-9-isopropyl-5-methyl-6-oxo-6,7,8,9-tetrahydro-5H-pyrimido[4,5-b][1,4]diazepin-2-yl)amino)-N-((1r,4r)-4-(4-(2-(2,6-dioxopiperidin-3-yl)-1,3-dioxoisoindolin-5-yl)piperazin-1-yl)cyclohexyl)-3-methoxybenzamide]
- Activity: ratio of the luminescense value of each Exemplary Compound treatment group to DMSO treatment group [1]: ++ (++<0.6)
- IC50 [2]: < 0.05 µM
- IC50 [3, 4]: 19.3 µM

SMILES: COc1cc(C(=O)NN2CCC(CCN3CCN(c4cccc5c4C(=O)N(C4CCC(=O)NC4=O)C5=O)CC3)C2)ccc1Nc1ncc2c(n1)N(C1CCCC1)CC(F)(F)C(=O)N2C (stereo not drawn) [Compound 151, 4-((9-cyclopentyl-7,7-difluoro-5-methyl-6-oxo-6,7,8,9-tetrahydro-5H-pyrimido[4,5-b][1,4]diazepin-2-yl)amino)-N-(3-(2-(4-(2-(2,6-dioxopiperidin-3-yl)-1,3-dioxoisoindolin-4-yl)piperazin-1-yl)ethyl)pyrrolidin-1-yl)-3-methoxybenzamide]
- Activity: ratio of the luminescense value of each Exemplary Compound treatment group to DMSO treatment group [1]: ++ (++<0.6)
- IC50 [2]: < 0.05 µM
- IC50 [3, 4]: > 10 µM

SMILES: COc1cc(C(=O)N[C@H]2CC[C@H](N(C)CC3CCN(c4cccc5c4C(=O)N(C4CCC(=O)NC4=O)C5=O)CC3)CC2)ccc1Nc1ncc2c(n1)N(C(C)C)CC(F)(F)C(=O)N2C (stereo partly drawn) [Compound 152, 4-((7,7-difluoro-9-isopropyl-5-methyl-6-oxo-6,7,8,9-tetrahydro-5H-pyrimido[4,5-b][1,4]diazepin-2-yl)amino)-N-((1r,4r)-4-(((1-(2-(2,6-dioxopiperidin-3-yl)-1,3-dioxoisoindolin-4-yl)piperidin-4-yl)methyl)(methyl)amino)cyclohexyl)-3-methoxybenzamide]
- Activity: ratio of the luminescense value of each Exemplary Compound treatment group to DMSO treatment group [1]: ++ (++<0.6)
- IC50 [2]: < 0.05 µM
- IC50 [3, 4]: 6.17 µM

SMILES: COc1cc(C(=O)N[C@H]2CC[C@H](N(C)CC3CCN(c4ccc5c(c4)C(=O)N(C4CCC(=O)NC4=O)C5=O)CC3)CC2)ccc1Nc1ncc2c(n1)N(C(C)C)CC(F)(F)C(=O)N2C (stereo partly drawn) [Compound 153, 4-((7,7-difluoro-9-isopropyl-5-methyl-6-oxo-6,7,8,9-tetrahydro-5H-pyrimido[4,5-b][1,4]diazepin-2-yl)amino)-N-((1r,4r)-4-(((1-(2-(2,6-dioxopiperidin-3-yl)-1,3-dioxoisoindolin-5-yl)piperidin-4-yl)methyl)(methyl)amino)cyclohexyl)-3-methoxybenzamide]
- Activity: ratio of the luminescense value of each Exemplary Compound treatment group to DMSO treatment group [1]: ++ (++<0.6)
- IC50 [2]: < 0.05 µM
- IC50 [3, 4]: 15.8 µM

SMILES: COc1cc(C(=O)NN2CCC(N3CCN(c4ccc5c(c4)C(=O)N(C4CCC(=O)NC4=O)C5=O)CC3)C2)ccc1Nc1ncc2c(n1)N(C(C)C)CC(F)(F)C(=O)N2C (stereo not drawn) [Compound 154, 4-((7,7-difluoro-9-isopropyl-5-methyl-6-oxo-6,7,8,9-tetrahydro-5H-pyrimido[4,5-b][1,4]diazepin-2-yl)amino)-N-(3-(4-(2-(2,6-dioxopiperidin-3-yl)-1,3-dioxoisoindolin-5-yl)piperazin-1-yl)pyrrolidin-1-yl)-3-methoxybenzamide]
- Activity: ratio of the luminescense value of each Exemplary Compound treatment group to DMSO treatment group [1]: ++ (++<0.6)
- IC50 [2]: < 0.1 µM
- IC50 [3, 4]: > 10 µM

— patent US20250114460A1, “NOVEL PLK1 DEGRADATION INDUCING COMPOUND” (UPPTHERA, INC., priority 2021, published 2025)
